Patent publication US20180237449A1, “FUMAGILLOL SPIROCYCLIC COMPOUNDS AND FUSED BICYCLIC COMPOUNDS AND METHODS OF MAKING AND USING SAME” (Zafgen, Inc., priority 2015, published 2018)
pEC50: −log10 of the molar value. Where a name gives a salt, the structure may show the parent alone.

Experiments:
[1] = system: pregnant Sprague Dawley rats; experiment: Rat embryofetal development study; assay type: in vivo; details: 6 mpk sc once every three days, Gestation Days 6-18
Description: The objective of this study design was to evaluate the potential effects of disclosed compounds on embryo/fetal development when given subcutaneously to pregnant rats once every three days during the critical period of organogenesis (Gestation Days 6-18). Female, Sprague Dawley rats, approximately 10 weeks of age, time bred, were ordered from a certified vendor and housed individually housed in stainless steel cages suspended over flush pans, on a 12-hour light-dark cycle (0700-1900) at 20-26° C. and 30-70% humidity. Rats were fed a standard rodent chow and provided water ad libitum. Rats were received and housed in the facility for a period of approximately 1 to 2 days.
Compounds were formulated using 100% DMSO mixed in Sterile Water for Injection, resulting in 2% DMSO solution in water. If necessary, due to limited solubility of a test article, a higher percentage of DMSO solution in water was used. Groups of 8 mated and presumed pregnant female rats were given subcutaneous doses of vehicle or test article, once every three days, beginning on Gestation Day 6 and ending on Gestation Day 18 (Days 6, 9, 12, 15, and 18), maintained two more days, and then euthanized and necropsied on Gestation Day 20. Body weights was recorded for all animals on Gestation Days 5 (purpose of randomization), 6, 9, 12, 15, 18, and 20 (scheduled euthanasia). Food consumption by weight was recorded on Gestation Days 6, 9, 12, 15, 18, and 20 (scheduled termination).
At necropsy, the dams were examined visually for external abnormalities including palpable masses. The abdominal, thoracic, and cranial cavities and their contents were examined for abnormalities and findings will be recorded. The reproductive tract were examined to record the number of ovarian corpora lutea, the number and location of uterine implantation sites noting the position of the cervix, and the number of early resorptions, late resorptions, live fetuses, and dead fetuses. For dead fetuses and late resorptions, crown-to-rump length and weight were recorded, if possible, and the fetus was discarded. For viable fetuses, weight, sex, and grossly visible external abnormalities were recorded.

[2] = system: human fibrosarcoma cell line HT-1080; experiment: HT-1080 cell assay (CellTiter-Glo, 72 hours); assay type: cell-based; details: 72 hours incubation
Description: The human fibrosarcoma cell line HT-1080 were grown to almost complete confluence in T75 tissue culture flasks in preparation for the experiment. The cells were trypsinised and re-suspended in complete medium using DMEM plus 9% FBS including penicillin/streptomycin supplements. 500 cells in a total volume of 25 μl were seeded into black walled 384 well plates and returned to a CO2 incubator over-night. Compounds and standards were prepared at 333.3× actual test concentration in neat DMSO. 10 point dose response curves of test compounds were generated by 1:3 serial dilutions, 2 μl of DMSO stock was transferred to 109 μl complete medium. This was further diluted 1:6 in complete medium, with 5 μl of the resulting solution added to the incubated 384 well plate. […] For experimental blanks at the start of the experiment, CellTiter-Glo was added to a satellite plate of cells (identical to the experimental plate), when adding compounds on Day 1. The average of these wells is used as the blanks in the calculation template. Following 72 hours incubation with compounds and standard the plate was removed from the incubator and allowed to equilibrate at room temperature for at least 30 minutes. CellTiter-Glo was thawed and subsequently 30 μl added to columns 2-23. The plate was covered with a clear Perkin Elmer Topseal and placed on a plate shaker for 10-20 mins to aid homogenous mixing. Luminescence per well was determined using an EnVision 2104 Multilabel Reader (PerkinElmer) or other suitable reader. The compound blank value recorded on Day 1 is subtracted from all other data. Data is expressed as % inhibition of mean DMSO control response and the EC50 is calculated as 50% maximum response. The EC50 values are determined from a sigmoidal 4 parameter curve fit using XLfit in conjunction with Activity Base (IDBS; Guildford, Surrey, UK). The bottom of the curve is fixed to 0% inhibition.

[3] = system: Diet Induced Obese (DIO) C57BL/6 mice; experiment: 10 day DIO mouse model, weight loss vs. vehicle; assay type: in vivo; details: 0.3 mpk sc once a day for 10 days
Description: The objective of this study design was to investigate the efficacy of disclosed compounds in a 10 day DIO mouse model. Effects on body weight, food intake, hematology and blood chemistry were the primary readouts of this study design. Male, Diet Induced Obese (DIO) C57BL/6 mice, 19-21 weeks of age (13-15 weeks on high fat diet) were ordered from a certified vendor and upon receipt were housed on irradiated corncob bedding in micro-isolator cages on a 12-hour light-dark cycle (0700-1900) at 68-74° F. and 30-70% humidity. Mice were fed Research Diets D12492 (60% Kcal fat, 20% Kcal carbohydrate and 20% protein) and provided water ad libitum. DIO mice were received and housed in the facility for approximately two weeks prior to the start of test article administration. On Day −4 or −3, mice were randomized into study groups based on body weight and body weights were continued to be recorded daily for the duration of the study. Daily food intake was assessed starting on Study Day −2 by weighing of the food with hopper together to avoid loss of food in transfer.
Compounds were formulated into a 100% DMSO stock (at 9 mg/mL) prior to the start, and further diluted into the target working concentration using the vehicle of 10% DMSO in water. Prior to test article administration, starting on Day −3 a dosing acclimation occurred with all animals receiving a subcutaneous injection of vehicle (10% DMSO) only for 3 days. Starting on Day 1, test compounds or vehicle were administered based on individual body weight, subcutaneously, once a day for 10 days. All mice were sacrificed on Day 11, 24 hours following the final dosing on Day 10. After sacrifice, whole blood was collected and analyzed for hematology and blood chemistry parameters.
Compounds were tested for weight loss vs. vehicle at 0.3 and 1.0 mpk sc (mg per kg animal weight delivered subcutaneously), and the results are shown in Table 2 below.

[4] = system: DIO Sprague Dawley rats; experiment: 11 day rat DIO model, weight loss vs. vehicle; assay type: in vivo; details: 0.3 mpk sc once a day for 11 days
Description: The objective of this study design is to investigate the efficacy of disclosed compounds in an 11 day rat DIO model used to screen compounds for pharmacologic efficacy on endpoints related to obesity and metabolism. Effects on body weight, food intake, hematology and blood chemistries were the primary readouts of this study design. Male Sprague Dawley rats, approximately 8 weeks of age, were ordered from a certified vendor and housed on irradiated corncob bedding in micro-isolator cages, on a 12-hour light-dark cycle (0700-1900) at 68-74° F. and 30-70% humidity. Rats were fed Research Diets D12451 (45% High Fat) and provided water ad libitum. Rats were received and housed in the facility for at least two or three weeks prior to start of test article administration. On Day −4 or −3, rats were randomized into study groups based on body weight and body weights were continued to be recorded daily for the duration of the study. Daily food intake was assessed starting on Study Day −2 by weighing the hopper including the food to avoid loss of food in transfer.
Compounds were formulated into a 100% DMSO stock (at 9 mg/mL) prior to the start, and further diluted into the target working concentration using the vehicle of 10% DMSO in water. […] After sacrifice, whole blood was collected and analyzed for hematology and blood chemistry parameters. […]

SMILES | Rat Embryofetal @6 mpk [1] | pEC50 [2] | weight loss vs. vehicle, Mouse @ 0.3 mpk sc (%) [3] [%] | weight loss vs. vehicle, Rat @ 0.3 mpk sc (%) [4] [%]
CO[C@@H]1[C@H](OC(=O)N2CCC3(CCOCC3)C2)CC[C@]2(CO2)[C@H]1[C@@]1(C)O[C@@H]1CC=C(C)C [Example 27, (3R,4S,5S,6R)-5-methoxy-4-((2R,3R)-2-methyl-3-(3-methylbut-2-enyl)oxiran-2-yl)-1-oxaspiro[2.5]octan-6-yl 8-oxa-2-azaspiro[4.5]decane-2-carboxylate] | Positive | > 9.30 | – | –
CO[C@@H]1[C@H](OC(=O)NC2CC3(CCN(C)C3)C2)CC[C@]2(CO2)[C@H]1[C@@]1(C)O[C@@H]1CC=C(C)C (stereo partly drawn) [Example 11, (3R,4S,5S,6R)-5-methoxy-4-((2R,3R)-2-methyl-3-(3-methylbut-2-enyl)oxiran-2-yl)-1-oxaspiro[2.5]octan-6-yl 6-methyl-6-azaspiro[3.4]octan-2-ylcarbamate formate] | – | – | 6 | –
CO[C@@H]1[C@H](OC(=O)N2CCC3(CC2)COC3)CC[C@]2(CO2)[C@H]1[C@@]1(C)O[C@@H]1CC=C(C)C [Example 5, (3R,4S,5S,6R)-5-methoxy-4-((2R,3R)-2-methyl-3-(3-methylbut-2-enyl)oxiran-2-yl)-1-oxaspiro[2.5]octan-6-yl 2-oxa-7-azaspiro[3.5]nonane-7-carboxylate] | – | – | 16.7 | 6.6
CO[C@@H]1[C@H](OC(=O)N2CC3C(C2)C3(F)F)CC[C@]2(CO2)[C@H]1[C@@]1(C)O[C@@H]1CC=C(C)C (stereo partly drawn) [Example 22, (3R,4S,5S,6R)-5-methoxy-4-((2R,3R)-2-methyl-3-(3-methylbut-2-enyl)oxiran-2-yl)-1-oxaspiro[2.5]octan-6-yl 6,6-difluoro-3-azabicyclo[3.1.0]hexane-3-carboxylate] | Negative | > 9.30 | – | –
CO[C@@H]1[C@H](OC(=O)N2CC3(CNC(=O)C3)C2)CC[C@]2(CO2)[C@H]1[C@@]1(C)O[C@@H]1CC=C(C)C [Example 25, (3R,4S,5S,6R)-5-methoxy-4-((2R,3R)-2-methyl-3-(3-methylbut-2-enyl)oxiran-2-yl)-1-oxaspiro[2.5]octan-6-yl 7-oxo-2,6-diazaspiro[3.4]octane-2-carboxylate] | – | – | 2 | –
CO[C@@H]1[C@H](OC(=O)/C=C/c2ccc(OCCN(C)C)cc2)CC[C@]2(CO2)[C@H]1[C@@]1(C)O[C@@H]1CC=C(C)C [compound A, [(3R,6R,7S,8S)-7-methoxy-8-[(2R,3R)-2-methyl-3-(3-methylbut-2-enyl)oxiran-2-yl]-2-oxaspiro[2.5]octan-6-yl] (E)-3-[4-[2-(dimethylamino)ethoxy]phenyl]prop-2-enoate, reference compound] | Positive | – | – | –
CO[C@@H]1[C@H](OC(=O)N2CCC3(CCN(C)CC3)CC2)CC[C@]2(CO2)[C@H]1[C@@]1(C)O[C@@H]1CC=C(C)C [Example 28, (3R,4S,5S,6R)-5-methoxy-4-((2R,3R)-2-methyl-3-(3-methylbut-2-enyl)oxiran-2-yl)-1-oxaspiro[2.5]octan-6-yl 9-methyl-3,9-diazaspiro[5.5]undecane-3-carboxylate] | – | – | 8 | –
CO[C@@H]1[C@H](OC(=O)N2CC3(C2)CS(=O)(=O)C3)CC[C@]2(CO2)[C@H]1[C@@]1(C)O[C@@H]1CC=C(C)C [Example 23, (3R,4S,5S,6R)-5-methoxy-4-((2R,3R)-2-methyl-3-(3-methylbut-2-enyl)oxiran-2-yl)-1-oxaspiro[2.5]octan-6-yl 2-thia-6-azaspiro[3.3]heptane 2,2-dioxide-6-carboxylate] | – | – | 2 | –
CO[C@@H]1[C@H](OC(=O)N2CC3(COC3)C2)CC[C@]2(CO2)[C@H]1[C@@]1(C)O[C@@H]1CC=C(C)C [Example 2, (3R,4S,5S,6R)-5-methoxy-4-((2R,3R)-2-methyl-3-(3-methylbut-2-enyl)oxiran-2-yl)-1-oxaspiro[2.5]octan-6-yl 2-oxa-6-azaspiro[3.3]heptane-6-carboxylate] | Positive | > 9.30 | – | –
CO[C@@H]1[C@H](OC(=O)N2CC3(CCN(CC(F)F)CC3)C2)CC[C@]2(CO2)[C@H]1[C@@]1(C)O[C@@H]1CC=C(C)C [Example 9, (3R,4S,5S,6R)-5-methoxy-4-((2R,3R)-2-methyl-3-(3-methylbut-2-enyl)oxiran-2-yl)-1-oxaspiro[2.5]octan-6-yl 7-(2,2-difluoroethyl)-2,7-diazaspiro[3.5]nonane-2-carboxylate formate] | Positive | > 9.30 | – | –
CO[C@@H]1[C@H](OC(=O)N2C[C@@H]3[C@H](C2)[C@H]3C(=O)NCCN2CCOCC2)CC[C@]2(CO2)[C@H]1[C@@]1(C)O[C@@H]1CC=C(C)C [Example 37, (1R,5S,6R)-(3R,4S,5S,6R)-5-methoxy-4-((2R,3R)-2-methyl-3-(3-methylbut-2-en-1-yl)oxiran-2-yl)-1-oxaspiro[2.5]octan-6-yl 6-((2-morpholinoethyl)carbamoyl)-3-azabicyclo[3.1.0]hexane-3-carboxylate] | – | – | 4.3 | –
